Measurements: the NIST ThermoML archive (doi:10.1016/j.fluid.2018.07.014)
± gives the expanded uncertainty stated by the source.

Assay: Boiling temperature at pressure P
Conditions: Liquid, Closed cell (Static) method

SMILES | Boiling temperature at pressure P (9.6 kPa) | Boiling temperature at pressure P (13.7 kPa) | Boiling temperature at pressure P (23.8 kPa) | Boiling temperature at pressure P (38.9 kPa) | Boiling temperature at pressure P (54.5 kPa) | Boiling temperature at pressure P (69.5 kPa) | Boiling temperature at pressure P (91.7 kPa) | Boiling temperature at pressure P (6.9 kPa) | Boiling temperature at pressure P (9 kPa) | Boiling temperature at pressure P (14.1 kPa) | Boiling temperature at pressure P (24.1 kPa) | Boiling temperature at pressure P (39.5 kPa) | Boiling temperature at pressure P (54.3 kPa) | Boiling temperature at pressure P (92.1 kPa) | Boiling temperature at pressure P (7.1 kPa) | Boiling temperature at pressure P (8.9 kPa) | Boiling temperature at pressure P (13.9 kPa) | Boiling temperature at pressure P (39.1 kPa) | Boiling temperature at pressure P (52.7 kPa) | Boiling temperature at pressure P (69.3 kPa)
CCO [ethanol] | 30.2 ± 7.1 °C | 36.8 ± 5.2 °C | 47 ± 3.9 °C | 57.0 ± 3.1 °C | 64.4 ± 2.7 °C | 69.7 ± 2.4 °C | 76.6 ± 2.4 °C |  |  |  |  |  |  |  |  |  |  |  |  | 
O [water] |  |  |  |  |  | 90.0 ± 2.6 °C |  | 38.8 ± 8.5 °C | 44 ± 7.7 °C | 53 ± 6 °C | 64.2 ± 4.3 °C | 75.7 ± 3.4 °C | 83.8 ± 2.8 °C | 98.0 ± 2.5 °C |  |  |  |  |  | 
CCCCC(=O)OCC [ethyl pentanoate] |  |  |  |  |  |  | 141.8 ± 2.9 °C |  |  |  | 101.8 ± 4.9 °C |  |  |  | 72.2 ± 10 °C | 77.6 ± 9 °C | 88.0 ± 6.9 °C | 115.2 ± 3.7 °C | 122.6 ± 3 °C | 130.8 ± 2.9 °C
